What is called IC50 is the concentration needed to halve the response being measured. High values mean weaker potency in that assay, low ones greater potency in that assay.

This note sets out measurements from patent US8410066B2, “Heterobifunctional inhibitors of E-selectins and CXCR4 chemokine receptors” (GlycoMimetics, Inc., priority 2009, dated 2013).

Test [1] concerns the target T1, CXCR4 on the surface of SupT1 cells (Homo sapiens, UniProt P61073).
T1 construct: constitutively express CXCR4 on the cell surface; host or cells: SupT1 cells
The test is described as follows: Inhibition of binding of anti-CXCR4-PE antibody to CXCR4 on SupT1 cells (flow cytometry). The note with it: for % positive / Mean fluorescence intensity / Median fluorescence intensity: anti-CXCR4-PE. The source says: The assay assesses the ability of glycomimetic compounds to inhibit binding of an anti-CXCR4 antibody conjugated to phycoerythrin (“PE”), to CXCR4 on the surface of SupT1 cells. SupT1 cells are a T lymphoblast derived from a lymphoblastic leukemia and constitutively express CXCR4 on the cell surface. The cells are purchased from ATCC (ATCC number CRL-1942). Anti-human CXCR4-phycoerythrin monoclonal antibody (anti-CXCR4-PE) is purchased from R&D Systems (catalog number FAB170P, clone 12G5). The cells are grown in RPMI 1640 medium supplemented with 10% FBS. Approximately 2×10^6 cells are washed three times by centrifuging the cells at 400×g for 10 minutes and the cell pellet is resuspended in PBS plus 0.05% BSA. After the third centrifugation, the cell pellet is resuspended in PBS plus BSA to a concentration of 5×10^5 cells per ml. To block non-specific binding, human […] is added to the cells to a concentration of 1 μg per 10^5 cells. Next, 200 μl (1×10^5 cells) are added to 5 ml polypropylene round-bottom tubes (Falcon 2063 tubes). Compound #1 (Example 1) (lot 31-190) is added to the cells at final concentrations of 0.5, 5, 10, and 50 μM. To achieve a final concentration of 0.5 μM, 2.2 μl of 50 μM Compound #1 plus 19.8 μl of PBS/BSA are added to 200 μl of cells. To achieve a final concentration of 5 μM, 22 μl of 50 μM Compound #1 are added to 200 μl of cells. To achieve a final concentration of 10 μM, 4.4 μl of 500 μM Compound #1 plus 17.6 μl of PBS/BSA are added to 200 μl of cells. To achieve a final concentration of 50 μM, 22 μl of 500 μM Compound #1 are added to 200 μl of cells. Other aliquots of cells are treated with either 1 or 5 μM of the bicyclam CXCR4 antagonist AMD-3100 (Sigma Aldrich, catalog #A5602). To achieve a final concentration of 1 μM AMD-3100, 4.4 μl of 50 μM AMD-3100 plus 17.6 μl of PBS/BSA are added to 200 μl of cells and to achieve a final concentration of 5 μM, 22 μl of 50 μM AMD-3100 are added to 200 μl of cells. In addition, one tube of cells is treated with 1 μg/ml of SDF-1α (R&D Systems catalog #350-NS), the natural ligand of CXCR4. The tubes are placed at 4° C. for 15 minutes. Subsequently, each tube receives 10 μl of anti-CXCR4-PE, except one tube of cells receives 10 μl of mouse IgG 2A isotype control antibody. The tubes are incubated at 4° C. for 45 minutes. The cells are washed twice with PBS plus 0.05% BSA and the final cell pellet is resuspended in 100 μl of PBS/BSA. To fix the samples, 100 μl of 2% formaldehyde (Polysciences, Inc. ultrapure EM grade, catalog number 04018) are added to each tube. Flow cytometry is performed using a Cytomation MoFlo instrument.
On the technique in general: In flow cytometry, cells or beads pass a laser one at a time.

The subject of test [2] is E-selectin/Ig chimera. In words: E-selectin competitive binding assay (sLe^a polyacrylamide conjugate). The note with it: FIGS. 4 and 5. The method, then: The inhibition assay to screen glycomimetic antagonists of E-selectin is a competitive binding assay, which allows the determination of IC50 values. Briefly, E-selectin/Ig chimera is immobilized by incubation at 37° C. in 96 well microtiter plates for 2 hours. To reduce nonspecific binding, bovine serum albumin is added to each well and incubated at room temperature for 2 hours. The plate is washed and serial dilutions of the test compounds are added to the wells in the presence of conjugates of biotinylated, sLe^a polyacrylamide with streptavidin/horseradishperoxidase and incubated for 2 hours at room temperature. To determine the amount of sLe^a bound to immobilized E-selectin after washing, the peroxidase substrate, 3,3′,5,5′ tetramethylbenzidin (TMB) is added. After 3 minutes, the enzyme reaction is stopped by the addition of H3PO4 and the absorbance of light at a wavelength of 450 nm is determined. The concentration of test compound required to inhibit binding by 50% is determined and reported as the IC50 value for each glycomimetic E-selectin antagonist. In addition to reporting the absolute IC50 value as measured above, relative IC50 values are determined by a ratio of the IC50 measured for the test compound to that of an internal control (reference) stated for each assay.

T1 sequence (P61073 whole entry): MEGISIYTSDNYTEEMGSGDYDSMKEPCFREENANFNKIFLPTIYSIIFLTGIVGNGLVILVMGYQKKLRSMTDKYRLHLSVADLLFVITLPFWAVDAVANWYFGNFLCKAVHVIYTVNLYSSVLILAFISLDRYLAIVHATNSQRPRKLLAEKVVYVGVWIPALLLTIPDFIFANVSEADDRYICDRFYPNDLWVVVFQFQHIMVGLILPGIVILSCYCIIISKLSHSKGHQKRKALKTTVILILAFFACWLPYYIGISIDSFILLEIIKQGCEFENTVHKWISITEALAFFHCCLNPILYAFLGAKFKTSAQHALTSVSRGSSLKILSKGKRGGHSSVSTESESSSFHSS

As to `c1cc(CN2CCCNCCNCCCNCC2)ccc1CN1CCCNCCNCCCNCC1` [AMD-3100, reference compound], in test [1] (1 μM inhibitor), the “% positive” value was found to be 57.57%, the Mean fluorescence intensity is listed as 15.60 and the Median fluorescence intensity was 7.77. Besides, in test [1] (5 μM inhibitor), the “% positive” value is on record as 12.42%, the Mean fluorescence intensity is given as 9.98 and the Median fluorescence intensity is reported as 3.92.
Turning to `CC1CC(C(=O)NCCNCc2ccc(CN3CCCNCCNCCCNCC3)cc2)CC(OC2OC(CO)C(O)C(O[C@@H](CC3CCCCC3)C(=O)O)C2OC(=O)c2ccccc2)C1OC1OC(C)C(O)C(O)C1O` (stereo partly shown) [Compound #1], the “Inhibition of binding of anti-CXCR4-PE antibody to CXCR4 (in words)” value in test [1] is “inhibits binding of anti-CXCR4-PE to SupT1 cells in a dose-dependent manner”. In addition, the “% positive” value in test [1] (0.5 μM inhibitor) stood at 98.69%; in test [1] (5 μM inhibitor), 81.48%; in test [1] (10 μM inhibitor), 42.06%; in test [1] (50 μM inhibitor) it was 12.80%. In addition, the Mean fluorescence intensity in test [1] (0.5 μM inhibitor) worked out at 68.49; in test [1] (5 μM inhibitor), 22.25; in test [1] (10 μM inhibitor), 14.08; in test [1] (50 μM inhibitor) it was 11.08. The Median fluorescence intensity in test [1] (0.5 μM inhibitor) came to 54.25; in test [1] (5 μM inhibitor), 13.34; in test [1] (10 μM inhibitor) it was 6.04; in test [1] (50 μM inhibitor) it was 3.92. The compound further displayed an IC50 in test [1] (anti-CXCR4-PE clone 12G5, 4° C.) of 8.25 µM. Besides, in test [2], the “E-selectin antagonist activity (in words)” value is “potent E-selectin antagonist”.
As to SDF-1α, in test [1], the “Inhibition of binding of anti-CXCR4-PE antibody to CXCR4 (in words)” value is on record as “efficiently inhibits binding”. For the same compound, in test [1] (1 μg/ml inhibitor), the “% positive” value is 12.37%, the Mean fluorescence intensity stood at 10.25 and the Median fluorescence intensity stood at 4.07.
